Assay results published in publication PMC7347570, “A new functional JAZ degron sequence in strawberry JAZ1 revealed by structural and interaction studies on the COI1–JA-Ile/COR–JAZs complexes” (Scientific Reports, 2020).

Columns and labels:
Experiment in all cases: yeast two-hybrid (GAL4), COR-dependent growth
Format in all cases: cell-based
FaCOI1–FaJAZ1 = molecular target: T1, FaCOI1–FaJAZ1 (Fragaria x ananassa, UniProt A0A290U0M9+A0A290U3W5); details: 50 µM COR; 28 °C, 5 days; growth on SD-Leu-Trp-His and SD-Leu-Trp-His-Ade; JAZ co-receptor
T1 construct: gene COI1; Saccharomyces cerevisiae AH109; native degron IPMQRK
T1 sequence (A0A290U0M9 entry or part of it): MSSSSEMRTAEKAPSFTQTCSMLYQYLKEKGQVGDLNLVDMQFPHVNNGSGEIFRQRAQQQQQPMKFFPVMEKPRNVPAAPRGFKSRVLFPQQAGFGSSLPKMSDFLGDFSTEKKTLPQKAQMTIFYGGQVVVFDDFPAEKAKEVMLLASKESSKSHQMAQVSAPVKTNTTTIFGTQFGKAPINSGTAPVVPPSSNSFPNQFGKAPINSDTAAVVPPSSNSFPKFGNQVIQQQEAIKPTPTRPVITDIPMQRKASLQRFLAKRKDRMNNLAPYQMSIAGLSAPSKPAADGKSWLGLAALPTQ
T1 sequence (A0A290U3W5 entry or part of it): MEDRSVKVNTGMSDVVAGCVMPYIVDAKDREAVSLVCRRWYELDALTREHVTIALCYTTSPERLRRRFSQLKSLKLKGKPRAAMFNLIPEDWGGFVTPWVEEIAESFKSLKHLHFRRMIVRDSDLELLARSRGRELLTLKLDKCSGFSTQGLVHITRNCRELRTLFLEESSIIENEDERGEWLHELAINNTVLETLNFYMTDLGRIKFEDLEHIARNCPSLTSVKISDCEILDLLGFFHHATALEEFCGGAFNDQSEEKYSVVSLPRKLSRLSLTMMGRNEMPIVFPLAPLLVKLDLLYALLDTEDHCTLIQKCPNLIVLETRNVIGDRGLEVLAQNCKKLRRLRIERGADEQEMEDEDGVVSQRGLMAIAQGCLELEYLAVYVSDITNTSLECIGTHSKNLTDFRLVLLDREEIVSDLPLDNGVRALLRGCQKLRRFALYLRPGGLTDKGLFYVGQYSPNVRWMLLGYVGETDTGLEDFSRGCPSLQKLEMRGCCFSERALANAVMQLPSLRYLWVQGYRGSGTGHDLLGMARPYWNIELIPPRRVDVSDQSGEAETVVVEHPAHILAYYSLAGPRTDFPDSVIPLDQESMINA

FaCOI1–FaJAZ10 = molecular target: T2, FaCOI1–FaJAZ10 (Fragaria x ananassa, UniProt A0A290U3W5+A0A290U478); details: 50 µM COR; 28 °C, 5 days; SD-Leu-Trp-His selection; JAZ co-receptor
T2 construct: gene COI1; Saccharomyces cerevisiae AH109; degron LPIARR
T2 sequence (A0A290U3W5 entry or part of it): as above
T2 sequence (A0A290U478 entry or part of it): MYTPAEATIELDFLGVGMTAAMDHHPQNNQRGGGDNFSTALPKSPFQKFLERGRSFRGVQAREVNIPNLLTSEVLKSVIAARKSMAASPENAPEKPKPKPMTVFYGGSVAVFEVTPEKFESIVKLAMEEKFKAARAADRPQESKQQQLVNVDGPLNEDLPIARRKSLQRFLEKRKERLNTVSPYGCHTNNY

AtJAZ9 and FaCOI1 = molecular target: T3, AtJAZ9 and FaCOI1 (Fragaria x ananassa; Arabidopsis thaliana, UniProt A0A290U3W5+Q8W4J8); details: 50 µM COR; 28 °C, 5 days; JAZ co-receptor
T3 construct: gene COI1; mixed-species complex; Saccharomyces cerevisiae AH109
T3 sequence (Q8W4J8 whole entry): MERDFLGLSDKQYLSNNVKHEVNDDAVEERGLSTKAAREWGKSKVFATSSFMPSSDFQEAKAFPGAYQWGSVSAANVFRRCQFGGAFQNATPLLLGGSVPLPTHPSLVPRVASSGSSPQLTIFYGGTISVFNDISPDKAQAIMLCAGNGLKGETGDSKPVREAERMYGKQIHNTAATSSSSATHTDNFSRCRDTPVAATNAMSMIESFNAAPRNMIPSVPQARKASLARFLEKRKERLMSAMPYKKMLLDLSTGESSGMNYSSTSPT
T3 sequence (A0A290U3W5 entry or part of it): as the sequence (A0A290U3W5 entry or part of it) above

AtCOI1 with AtJAZ9 = molecular target: T4, AtCOI1 with AtJAZ9 (Arabidopsis thaliana, UniProt O04197+Q8W4J8); details: 50 µM COR; 28 °C, 5 days; JAZ co-receptor
T4 construct: gene COI1; Saccharomyces cerevisiae AH109; degron VPQARK
T4 sequence (O04197 whole entry): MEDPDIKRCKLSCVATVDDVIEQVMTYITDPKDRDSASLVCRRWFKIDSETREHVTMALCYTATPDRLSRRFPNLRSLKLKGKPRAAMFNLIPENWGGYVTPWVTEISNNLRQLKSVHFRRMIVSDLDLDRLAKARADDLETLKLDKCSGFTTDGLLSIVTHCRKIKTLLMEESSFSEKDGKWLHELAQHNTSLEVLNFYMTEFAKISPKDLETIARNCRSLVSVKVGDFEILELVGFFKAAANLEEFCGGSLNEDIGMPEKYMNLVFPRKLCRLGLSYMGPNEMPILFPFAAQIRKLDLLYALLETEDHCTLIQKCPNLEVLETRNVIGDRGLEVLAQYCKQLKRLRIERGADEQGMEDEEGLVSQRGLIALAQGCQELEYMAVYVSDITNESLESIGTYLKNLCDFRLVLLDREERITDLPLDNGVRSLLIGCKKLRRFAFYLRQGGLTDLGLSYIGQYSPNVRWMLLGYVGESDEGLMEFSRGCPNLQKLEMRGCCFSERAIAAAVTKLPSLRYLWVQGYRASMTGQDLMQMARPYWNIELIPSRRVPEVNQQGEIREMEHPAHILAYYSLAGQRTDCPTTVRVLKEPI
T4 sequence (Q8W4J8 whole entry): as the sequence (Q8W4J8 whole entry) above

AtCOI1–FaJAZ1 = molecular target: T5, AtCOI1–FaJAZ1 (Arabidopsis thaliana; Fragaria x ananassa, UniProt A0A290U0M9+O04197); details: 50 µM COR; 28 °C, 5 days; JAZ co-receptor
T5 construct: gene COI1; mixed-species complex; Saccharomyces cerevisiae AH109
T5 sequence (A0A290U0M9 entry or part of it): as the sequence (A0A290U0M9 entry or part of it) above
T5 sequence (O04197 whole entry): as the sequence (O04197 whole entry) above

AtCOI1 with AtJAZ1 = molecular target: T6, AtCOI1 with AtJAZ1 (Arabidopsis thaliana, UniProt O04197+Q9LMA8); details: 50 µM COR; 28 °C, 5 days; JAZ co-receptor
T6 construct: gene COI1; Saccharomyces cerevisiae AH109; degron LPIARR
T6 sequence (Q9LMA8 whole entry): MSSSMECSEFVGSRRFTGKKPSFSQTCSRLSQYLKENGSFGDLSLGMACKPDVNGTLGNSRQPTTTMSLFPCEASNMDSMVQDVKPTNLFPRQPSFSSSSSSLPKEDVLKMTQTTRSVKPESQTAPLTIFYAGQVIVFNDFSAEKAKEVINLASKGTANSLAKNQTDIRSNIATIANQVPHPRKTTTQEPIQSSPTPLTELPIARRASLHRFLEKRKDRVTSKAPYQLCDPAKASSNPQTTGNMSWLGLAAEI
T6 sequence (O04197 whole entry): as the sequence (O04197 whole entry) above

AtCOI1–FaJAZ10 = molecular target: T7, AtCOI1–FaJAZ10 (Arabidopsis thaliana; Fragaria x ananassa, UniProt A0A290U478+O04197); details: 50 µM COR; 28 °C, 5 days; JAZ co-receptor
T7 construct: gene COI1; mixed-species complex; Saccharomyces cerevisiae AH109
T7 sequence (O04197 whole entry): as above
T7 sequence (A0A290U478 entry or part of it): as the sequence (A0A290U478 entry or part of it) above

With `CC[C@H]1C=C(C(=O)N[C@@]2(C(=O)O)C[C@@H]2CC)[C@H]2CCC(=O)[C@H]2C1` [coronatine] the “yeast two-hybrid (GAL4), COR-dependent growth” value (“yeast two-hybrid (GAL4)” for short) (FaCOI1–FaJAZ1) was “FaJAZ1 and FaJAZ10 interacted with FaCOI1 in a COR-dependent manner”, the “yeast two-hybrid (GAL4)” value (FaCOI1–FaJAZ10) was “FaJAZ1 and FaJAZ10 interacted with FaCOI1 in a COR-dependent manner” and the “yeast two-hybrid (GAL4)” value (AtJAZ9 and FaCOI1) was “only a positive interaction between AtJAZ9 and FaCOI1 promoted by COR was observed”. For the same compound, the “yeast two-hybrid (GAL4)” value (AtCOI1 with AtJAZ9) was “AtJAZ1 and AtJAZ9 interacted with AtCOI1 which was observed by colony growth”, the “yeast two-hybrid (GAL4)” value (AtCOI1–FaJAZ1) was “both FaJAZ1 and FaJAZ10 interacted with AtCOI1 in restrictive media and supplemented with COR” and the “yeast two-hybrid (GAL4)” value (AtCOI1 with AtJAZ1) was “AtJAZ1 and AtJAZ9 interacted with AtCOI1 which was observed by colony growth”. For the same compound, the “yeast two-hybrid (GAL4)” value (AtCOI1–FaJAZ10) was “both FaJAZ1 and FaJAZ10 interacted with AtCOI1 in restrictive media and supplemented with COR”.
